Assay results as given in patent US9284302B2, “Cyclobutyl benzimidazoles as PDE 10 inhibitors” (Merck Sharp & Dohme Corp., priority 2012, dated 2016).

Target: human PDE10A2 (Homo sapiens (Human), UniProt Q9Y233)
Test: PDE10 fluorescence polarization (IMAP FP) inhibition assay
Type: biochemical
Settings: apparent inhibition constant; FAM-labeled cAMP substrate 50 nM, room temperature; read-out: PDE10a Ki
Method: The activity of the compounds in accordance with the present invention as PDE10 inhibitors may be readily determined without undue experimentation using a fluorescence polarization (FP) methodology that is well known in the art (Huang, W., et al., J. Biomol Screen, 2002, 7: 215).
In a typical experiment the PDE10 inhibitory activity of the compounds of the present invention was determined in accordance with the following experimental method. PDE10A2 was amplified from human fetal brain cDNA (Clontech, Mountain View, Calif.) using a forward primer corresponding to nucleotides 56-77 of human PDE10A2 (Accession No. AF127480, Genbank Identifier 4894716), containing a Kozak consensus sequence, and a reverse primer corresponding to nucleotides 2406-2413 of human PDE10A2 (Accession No. AF127480, Genbank Identifier 4894716). Amplification with Easy-A polymerase (Stratagene, La Jolla, Calif.) was 95° C. for 2 minutes followed by thirty three cycles of 95° C. for 40 seconds, 55° C. for 30 seconds, and 72° C. for 2 minutes 48 seconds. Final extension was 72° C. for 7 minutes. The PCR product was TA cloned into pcDNA3.2-TOPO (Invitrogen, Carlsbad, Calif.) according to standard protocol. AD293 cells with 70-80% confluency were transiently transfected with human PDE10A2/pcDNA3.2-TOPO using Lipofectamine 2000 according to manufacturer specifications (Invitrogen, Carlsbad, Calif.). Cells were harvested 48 hours post-transfection and lysed by sonication (setting 3, 10×5 sec pulses) in a buffer containing 20 mM HEPES, 1 mM EDTA and protease inhibitor cocktail (Roche). Lysate was collected by centrifugation at 75,000 xg for 20 minutes. Supernatant containing the cytoplasmic fraction was used for evaluation of PDE10A2 activity. The fluorescence polarization assay for cyclic nucleotide phosphodiesterases was performed using an IMAP® FP kit supplied by Molecular Devices, Sunnyvale, Calif. (product #R8139). IMAP® technology has been applied previously to phosphodiesterase assays (Huang, W., et al., J. Biomol Screen, 2002, 7: 215). Assays were performed at room temperature in 384-well microtiter plates with an incubation volume of 20.2 μL. Solutions of test compounds were prepared in DMSO and serially diluted with DMSO to yield 8 μL of each of 10 solutions differing by 3-fold in concentration, at 32 serial dilutions per plate. […] 0% of inhibition is determined by using DMSO (1% final concentrations). […]

Chain of human PDE10A2 (Q9Y233 267-1055): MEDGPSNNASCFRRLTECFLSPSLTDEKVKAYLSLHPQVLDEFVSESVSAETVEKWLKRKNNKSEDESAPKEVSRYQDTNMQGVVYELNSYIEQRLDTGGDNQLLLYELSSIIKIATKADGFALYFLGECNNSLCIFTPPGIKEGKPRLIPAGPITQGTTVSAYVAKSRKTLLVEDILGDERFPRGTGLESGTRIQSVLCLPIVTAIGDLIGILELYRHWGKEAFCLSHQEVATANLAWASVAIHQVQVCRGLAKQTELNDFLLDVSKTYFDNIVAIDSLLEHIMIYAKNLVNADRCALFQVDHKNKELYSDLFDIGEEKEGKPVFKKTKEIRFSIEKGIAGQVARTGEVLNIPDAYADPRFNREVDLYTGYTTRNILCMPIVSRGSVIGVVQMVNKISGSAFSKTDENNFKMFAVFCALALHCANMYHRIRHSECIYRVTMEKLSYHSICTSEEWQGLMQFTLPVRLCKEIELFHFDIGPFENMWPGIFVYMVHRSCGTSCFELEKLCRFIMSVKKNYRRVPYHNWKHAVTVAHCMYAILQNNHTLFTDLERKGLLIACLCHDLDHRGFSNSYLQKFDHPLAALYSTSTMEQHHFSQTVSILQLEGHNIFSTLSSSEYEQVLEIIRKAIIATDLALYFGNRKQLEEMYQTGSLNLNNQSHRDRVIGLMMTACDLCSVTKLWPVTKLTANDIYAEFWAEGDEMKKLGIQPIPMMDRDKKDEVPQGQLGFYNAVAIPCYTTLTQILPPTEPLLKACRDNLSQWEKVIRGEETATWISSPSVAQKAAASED

Ki [nM] | SMILES
4.7 | Cc1nc(-n2nc(C)nc2C)cc([C@H]2C[C@H](c3nc4ccccc4n3C)C2)n1 [Example 4, 2-((trans)-3-(6-(3,5-dimethyl-1H-1,2,4-triazol-1-yl)-2-methylpyrimidin-4-yl)cyclobutyl)-1-methyl-1H-benzo[d]imidazole]
2.8 | Cc1nc(-n2nc(C)nc2C)cc([C@H]2C[C@@H](c3nc4ccccc4n3C)C2)n1 [Example 3, 2-((cis)-3-(6-(3,5-dimethyl-1H-1,2,4-triazol-1-yl)-2-methylpyrimidin-4-yl)cyclobutyl)-1-methyl-1H-benzo[d]imidazole]
> 75 | Cc1nc(-n2nc(C)nc2C)cc(C2(O)CC(c3nc4ccccc4n3C)C2)n1 (stereo not shown) [Example 1, 1-(6-(3,5-dimethyl-1H-1,2,4-triazol-1-yl)-2-methylpyrimidin-4-yl)-3-(1-methyl-1H-benzo[d]imidazol-2-yl)cyclobutanol]
88 | Cc1nc(-n2nc(C)nc2C)cc(C2(F)CC(c3nc4ccccc4n3C)C2)n1 (stereo not shown) [Example 2, 2-(3-(6-(3,5-dimethyl-1H-1,2,4-triazol-1-yl)-2-methylpyrimidin-4-yl)-3-fluorocyclobutyl)-1-methyl-1H-benzo[d]imidazole]
